In US10336725B2, “Chemical compounds” (AstraZeneca AB, priority 2014, dated 2019):
Counter-ions that a name gives are not always drawn.

How the values were obtained:
Sodium Channel ENaC = biological target: T1, Sodium Channel ENaC (Homo sapiens, UniProt P37088+P51168+P51170); experiment: Sodium Channel ENaC Ussing Chamber Test (short circuit current); assay type: cell-based; settings: human primary bronchial epithelial cells at air-liquid interface; inhibition of short circuit current; compounds added to the apical side
T1 construct: Human primary bronchial epithelial cells differentiated at air-liquid interface (ALI); host or cells: Human primary bronchial epithelial cells differentiated at air-liquid interface
T1 sequence (P37088 1-669): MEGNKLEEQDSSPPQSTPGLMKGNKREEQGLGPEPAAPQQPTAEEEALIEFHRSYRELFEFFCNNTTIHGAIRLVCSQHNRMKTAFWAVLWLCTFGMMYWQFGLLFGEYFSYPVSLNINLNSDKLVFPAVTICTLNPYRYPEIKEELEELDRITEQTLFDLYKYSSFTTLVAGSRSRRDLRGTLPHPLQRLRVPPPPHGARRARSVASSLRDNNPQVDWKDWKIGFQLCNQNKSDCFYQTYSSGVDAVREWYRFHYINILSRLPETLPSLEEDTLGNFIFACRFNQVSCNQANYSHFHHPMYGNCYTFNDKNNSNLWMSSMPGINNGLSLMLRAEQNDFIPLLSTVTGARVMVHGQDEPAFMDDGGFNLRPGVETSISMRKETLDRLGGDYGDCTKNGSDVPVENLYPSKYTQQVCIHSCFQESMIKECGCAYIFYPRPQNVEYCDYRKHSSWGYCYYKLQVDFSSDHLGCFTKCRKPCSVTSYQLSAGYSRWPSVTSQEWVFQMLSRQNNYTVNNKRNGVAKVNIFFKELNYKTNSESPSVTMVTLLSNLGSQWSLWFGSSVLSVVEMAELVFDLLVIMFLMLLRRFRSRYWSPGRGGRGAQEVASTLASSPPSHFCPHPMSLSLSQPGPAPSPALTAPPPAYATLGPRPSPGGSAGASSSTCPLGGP
T1 sequence (P51168 1-640): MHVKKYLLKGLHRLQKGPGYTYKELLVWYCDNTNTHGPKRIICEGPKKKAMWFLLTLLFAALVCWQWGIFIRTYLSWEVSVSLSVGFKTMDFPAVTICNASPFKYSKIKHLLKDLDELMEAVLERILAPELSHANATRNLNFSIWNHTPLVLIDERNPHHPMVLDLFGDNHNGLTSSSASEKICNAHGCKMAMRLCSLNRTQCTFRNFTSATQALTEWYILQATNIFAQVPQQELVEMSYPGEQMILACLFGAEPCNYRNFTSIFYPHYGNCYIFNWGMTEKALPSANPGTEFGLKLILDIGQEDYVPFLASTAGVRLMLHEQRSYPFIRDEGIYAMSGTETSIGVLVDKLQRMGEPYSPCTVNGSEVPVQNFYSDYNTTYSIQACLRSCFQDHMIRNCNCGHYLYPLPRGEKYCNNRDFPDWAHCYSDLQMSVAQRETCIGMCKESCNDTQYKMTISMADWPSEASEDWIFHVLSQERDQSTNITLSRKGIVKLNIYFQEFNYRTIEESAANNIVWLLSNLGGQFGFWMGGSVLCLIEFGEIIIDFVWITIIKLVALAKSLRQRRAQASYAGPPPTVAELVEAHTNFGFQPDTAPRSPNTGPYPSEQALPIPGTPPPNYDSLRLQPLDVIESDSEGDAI
T1 sequence (P51170 1-649): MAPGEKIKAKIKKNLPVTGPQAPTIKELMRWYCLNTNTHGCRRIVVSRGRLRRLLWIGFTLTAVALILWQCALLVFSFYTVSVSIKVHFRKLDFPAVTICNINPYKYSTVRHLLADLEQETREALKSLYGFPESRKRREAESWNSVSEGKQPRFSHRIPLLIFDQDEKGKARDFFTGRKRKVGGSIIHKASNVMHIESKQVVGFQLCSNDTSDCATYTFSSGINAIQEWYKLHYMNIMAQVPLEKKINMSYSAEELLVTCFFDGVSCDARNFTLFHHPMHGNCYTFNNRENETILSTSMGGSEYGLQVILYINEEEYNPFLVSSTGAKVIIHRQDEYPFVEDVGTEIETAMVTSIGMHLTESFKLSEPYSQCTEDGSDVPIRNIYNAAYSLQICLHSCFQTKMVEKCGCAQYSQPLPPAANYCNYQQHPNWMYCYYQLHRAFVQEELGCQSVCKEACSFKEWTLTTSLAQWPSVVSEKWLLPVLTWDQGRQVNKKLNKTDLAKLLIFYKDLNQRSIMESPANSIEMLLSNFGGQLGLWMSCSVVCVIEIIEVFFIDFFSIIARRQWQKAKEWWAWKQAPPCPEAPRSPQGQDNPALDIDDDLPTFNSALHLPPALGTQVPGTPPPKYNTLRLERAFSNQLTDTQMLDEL
Description: Sodium Channel ENaC Ussing Chamber Test
Human primary bronchial epithelial cells differentiated at air-liquid interface (ALI) on snapwell permeable supports (MatTek Corporation, MA, USA, cat no AIR-100-SNP) were maintained at ALI culture in a humidified incubator at 37° C. and 5% CO2. Basolateral medium (MatTek Corporation, MA, USA cat no AIR-100-MM-ASY) was changed every second day. Mucus or liquid formed on the apical side was gently aspirated every second day to maintain viability and performance of the cells.
The transepithelial voltage between the luminal/apical and basolateral membrane were measured in the ussing chamber consisted of vertical, in-house manufactured ussing chambers, DVC-1000 V/C clamps with preamplifiers (World Precision Instruments), electrode kits (EK1, World Precision Instruments), Power Lab with Chart5 software, water bath with external circulation and carbogen gas distribution and regulation system. Electrodes used in the set up were casted manually using 4% agarose in 0.9% sterile NaCl according to the manufacturer's recommendation.
The ussing chambers were assembled with an empty snapwell membrane (Costar 3407) and electrodes contained in Kreb's buffer (SIGMA-ALDRICH cat no K3753) for one hour at 37° C. in presence of 95% oxygen and 5% carbon dioxide. After this equilibration step the system was compensated for fluid resistance and input offset.
The equilibrated chambers were reassembled with a snapwell containing ALI cells and after 20 minutes stabilisation cumulative doses of the compounds were added to the apical side of the membrane. After the final dose 10 μM Benzamil was added to reach maximum.
All test compounds, including the reference compound, were diluted from 10 mM stocks in 100% DMSO and added to opaque 96-well plates (Greiner, Cat No. 651201). Dilution series of 12 doses were prepared in DMSO, starting with 3 μM followed by 10 times dilution steps.
Chart5 for Windows software was used to measure the value of the short circuit current after each compound addition. The data was transferred into Excel and analysed using IDBS XLfit® 5.2 (ID Business Solutions Ltd). The molar concentration of test or reference compound producing 50% inhibition (curve IC50) was derived by fitting data to a 4-parameter logistic function of the form: y=(A+((B−A)/(1+(((10^C)/x)^D))))
A The bottom plateau of the curve, i.e. the final minimum y value
B The top of the plateau of the curve i.e. the final maximum y value
C The log10 x value at a y value of 50%.

[1] = test system: ENaC β-subunit overexpressing transgenic mice; settings: administration to the lungs of the mice for 14 days after birth; cited from earlier work
normal subjects = settings: treatment of normal subjects; cited from earlier work

Compound: CCCCCCN(CCNC(=O)c1ccc(CNC[C@H](CNC(=O)c2nc(Cl)c(N)nc2N)Cc2ccccc2C)cc1)C[C@H](O)[C@@H](O)[C@H](O)CO [Example 2, 3,5-diamino-6-chloro-N—((R)-3-((4-((2-(hexyl((2S,3R,4R)-2,3,4,5-tetrahydroxypentyl)amino)ethyl)carbamoyl)benzyl)amino)-2-(2-methylbenzyl)propyl)pyrazine-2-carboxamide]
- IC50 (Sodium Channel ENaC): 2510 pM

Compound: Cc1ccccc1C[C@H](CNCC1CCN(C(=O)CCNC[C@H](O)[C@@H](O)[C@H](O)CO)CC1)CNC(=O)c1nc(Cl)c(N)nc1N [Example 1, 3,5-diamino-6-chloro-N—((R)-2-(2-methylbenzyl)-3-(((1-(3-(((2S,3R,4R)-2,3,4,5-tetrahydroxypentyl)amino)propanoyl)piperidin-4-yl)methyl)amino)propyl)pyrazine-2-carboxamide]
- IC50 (Sodium Channel ENaC): 316 pM

Compound: CCCCCCN(CCC(=O)N1CCC(CNC[C@H](CNC(=O)c2nc(Cl)c(N)nc2N)Cc2ccccc2C)CC1)C[C@@H](O)[C@@H](O)[C@H](O)[C@H](O)CO [Example 8, 3,5-diamino-6-chloro-N—((R)-3-((1-(3-(hexyl((2R,3R,4R,5R)-2,3,4,5,6-pentahydroxyhexyl)amino)propanoyl)piperidin-4-yl)methylamino)-2-(2-methylbenzyl)propyl)pyrazine-2-carboxamide]
- IC50 (Sodium Channel ENaC): 316 pM

Compound: CCCCCCN(CCCC(=O)N1CCC(CNC[C@H](CNC(=O)c2nc(Cl)c(N)nc2N)Cc2ccccc2C)CC1)C[C@H](O)[C@@H](O)[C@H](O)[C@H](O)CO [Example 6, 3,5-diamino-6-chloro-N—((R)-3-((1-(4-(hexyl((2S,3R,4R,5R)-2,3,4,5,6-pentahydroxyhexyl)amino)butanoyl)piperidin-4-yl)methylamino)-2-(2-methylbenzyl)propyl)pyrazine-2-carboxamide]
- IC50 (Sodium Channel ENaC): 316 pM

Compound: CCCCCCN(CCNC(=O)c1ccc(CCNC[C@H](CNC(=O)c2nc(Cl)c(N)nc2N)Cc2ccccc2C)cc1)C[C@H](O)[C@@H](O)[C@H](O)[C@H](O)CO [Example 12, 3,5-diamino-6-chloro-N—((R)-3-((4-((2-(hexyl((2S,3R,4R,5R)-2,3,4,5,6-pentahydroxyhexyl)amino)ethyl)carbamoyl)phenethyl)amino)-2-(2-methylbenzyl)propyl)pyrazine-2-carboxamide Dihydrochloride]
- IC50 (Sodium Channel ENaC): 251 pM

Compound: N=C(N)NC(=O)c1nc(Cl)c(N)nc1N [amiloride]
- mortality [1]: significantly reduced
- ASL volume (normal subjects): increases
- MCC rates (normal subjects): increases

Compound: CCCCCCN(CCNC(=O)c1ccc(CNC[C@@H](CNC(=O)c2nc(Cl)c(N)nc2N)Cc2ccccc2C)cc1)C[C@H](O)[C@@H](O)[C@H](O)CO [Example 14, 3,5-diamino-6-chloro-N—((S)-3-((4-((2-(hexyl((2S,3R,4R)-2,3,4,5-tetrahydroxypentyl)amino)ethyl)carbamoyl)benzyl)amino)-2-(2-methylbenzyl)propyl)pyrazine-2-carboxamide Acetic Acid]
- IC50 (Sodium Channel ENaC): 31600 pM
